# Assay results reported in patent EP2343287A1, “New 2-aminothiadiazole derivatives” (Almirall, S.A., priority 2009, dated 2011).
# Biological target: S1P1 (Homo sapiens, UniProt P21453)
# Test: 35S-GTPyS binding assay
# Assay type: biochemical
# Details: membranes; compounds at 0.1nM-10µM; 0.1nM 35S-GTPyS; 10µM S1P used as 100% maximum efficacy; 90 min at room temperature
# Protocol: The effect of the compounds was measured using a 35S-GTPyS binding assay. Briefly, membranes were incubated in a buffer containing 20 mM HEPES pH 7.4, 100 mM NaCl, 10 mM MgCl2, 10µM GDP, 50µg/ml saponin and 0.2% fatty acid-free BSA at various concentrations (0.1nM-10µM) and 0.1nM 35S-GTPyS. 10µM S1P was used as 100% maximum efficacy. The assay was incubated for 90 min at room temperature with gentle mixing, and terminated by filtrating the reaction mixture through GF/C filter plates using the Manifold Filtration System. The filters were immediately washed with sodium phosphate pH 7.4 buffers. After drying the filter plate's scintillant liquid were added to each well and 35S-GTPyS binding was measured on a Trilux Scintillation Counter.
# S1P1, sequence (P21453 whole entry, species assumed): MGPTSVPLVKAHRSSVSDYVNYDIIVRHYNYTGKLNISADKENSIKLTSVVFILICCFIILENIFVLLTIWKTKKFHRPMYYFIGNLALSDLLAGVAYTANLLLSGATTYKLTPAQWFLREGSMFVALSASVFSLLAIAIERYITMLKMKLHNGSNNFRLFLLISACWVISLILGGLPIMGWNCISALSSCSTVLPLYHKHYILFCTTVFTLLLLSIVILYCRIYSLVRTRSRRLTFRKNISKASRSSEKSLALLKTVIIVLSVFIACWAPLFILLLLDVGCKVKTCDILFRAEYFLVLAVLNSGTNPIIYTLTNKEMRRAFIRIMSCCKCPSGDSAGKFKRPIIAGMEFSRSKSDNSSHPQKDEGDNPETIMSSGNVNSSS
row,Structure (SMILES),EC50 [nM]
1,"CCCCN(Cc1ccccc1Cl)c1nnc(-c2cc(C)c(OC)c(C)c2)s1 [Example 1, N-Butyl-N-(2-chlorobenzyl)-5-(4-methoxy-3,5-dimethylphenyl)-1,3,4-thiadiazol-2-amine]",39
2,"CCCCN(Cc1c(Cl)cccc1Cl)c1nnc(-c2ccnc(C)c2)s1 [Example 16, N-Butyl-N-(2,6-dichlorobenzyl)-5-(2-methylpyridin-4-yl)-1,3,4-thiadiazol-2-amine]",18
3,"CCCCN(Cc1ccccc1Cl)c1nnc(-c2cc(C)c(OC[C@H](O)CO)c(C)c2)s1 [Example 29, (2R)-3-(4-{5-[Butyl(2-chlorobenzyl)amino]-1,3,4-thiadiazol-2-yl}-2,6-dimethyl-phenoxy)propane-1,2-diol]",15
4,"CCCCN(Cc1ccccc1Cl)c1nnc(-c2cc(C)c(OCC(O)CN)c(C)c2)s1 (stereo not shown) [Example 34, 1-Amino-3-(4-{5-[butyl(2-chlorobenzyl)amino]-1,3,4-thiadiazol-2-yl}-2,6-dimethyl-phenoxy)propan-2-ol]",32

# Second part, the compound after the results:
row,EC50 [nM],Structure (SMILES)
1,33,"CCCCN(Cc1ccccc1F)c1nnc(-c2cc(C)c(OCCN3CC(C(=O)O)C3)c(C)c2)s1 [Example 35, 1-[2-(4-{5-[Butyl(2-fluorobenzyl)amino]-1,3,4-thiadiazol-2-yl}-2,6-dimethyl-phenoxy)ethyl]azetidine-3-carboxylic acid]"
2,5,"CCCCN(Cc1ccccc1F)c1nnc(-c2cc(C)c(OCCNCCC(=O)O)c(C)c2)s1 [Example 36, N-[2-(4-{5-[Butyl(2-fluorobenzyl)amino]-1,3,4-thiadiazol-2-yl}-2,6-dimethyl-phenoxy)ethyl]-beta-alanine]"
3,123,"CCCCN(c1nnc(-c2ccc(CN3CC(C(=O)O)C3)cc2)s1)S(=O)(=O)Cc1ccccc1 [Example 43, 1-(4-{5-[(Benzylsulfonyl)(butyl)amino]-1,3,4-thiadiazol-2-yl}benzyl)azetidine-3-carboxylic acid]"
